This is an account of results in US20100216785A1, “PHARMACEUTICAL COMPOSITIONS” (NEUROSCIENZE PHARMANESS S.C. A.R.L., priority 2009, published 2010).

Usually pKi stands for −log10 of the Ki, conventionally taken in molar units. Read a low pKi as a high Ki. For orientation: melting point means the temperature, or range, at which the solid turns liquid.

pKi: −log10 of the molar value. A value given as a limit tells only on which side of the number the result lay.

T1 sequence (P47936 whole entry): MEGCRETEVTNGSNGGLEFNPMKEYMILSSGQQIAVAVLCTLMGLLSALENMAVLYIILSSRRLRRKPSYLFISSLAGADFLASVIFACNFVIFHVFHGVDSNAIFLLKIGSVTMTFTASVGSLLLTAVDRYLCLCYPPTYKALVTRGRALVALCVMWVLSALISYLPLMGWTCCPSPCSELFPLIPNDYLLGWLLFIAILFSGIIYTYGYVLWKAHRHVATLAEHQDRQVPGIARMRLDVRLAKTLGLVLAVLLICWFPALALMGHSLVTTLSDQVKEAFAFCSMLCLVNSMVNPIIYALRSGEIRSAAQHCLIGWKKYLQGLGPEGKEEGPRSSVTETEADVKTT
T2 sequence (P47746 whole entry): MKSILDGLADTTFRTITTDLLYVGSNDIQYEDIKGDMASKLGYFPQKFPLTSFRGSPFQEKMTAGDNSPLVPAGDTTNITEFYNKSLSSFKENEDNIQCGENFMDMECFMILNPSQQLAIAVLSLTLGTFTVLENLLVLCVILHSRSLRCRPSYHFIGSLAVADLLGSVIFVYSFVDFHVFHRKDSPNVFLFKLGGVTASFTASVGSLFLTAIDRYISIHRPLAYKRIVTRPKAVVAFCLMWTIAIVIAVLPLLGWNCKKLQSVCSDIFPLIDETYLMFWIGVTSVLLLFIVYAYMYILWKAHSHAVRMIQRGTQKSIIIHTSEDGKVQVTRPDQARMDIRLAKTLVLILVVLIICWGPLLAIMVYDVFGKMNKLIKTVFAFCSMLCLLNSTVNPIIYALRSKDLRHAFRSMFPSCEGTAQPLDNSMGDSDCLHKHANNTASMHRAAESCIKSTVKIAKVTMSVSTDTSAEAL

One series concerns the target T1, CB2 cannabinoidergic receptors (Mus musculus, UniProt P47936).
T1 construct: the complete brain (excluding the cerebellum) and the spleen were quickly dissected and kept in ice; from tissue; host or cells: mouse spleen membranes
In words: Radioreceptor binding, displacement of [3H]-CP-55,940, CB2 receptors (mouse spleen membranes). The following applies: 1 nM [3H]-CP55,940, 1 hour at 30° C. The protocol: (§1) The affinity of the compounds towards the CB1 and CB2 cannabinoidergic receptors was evaluated in vitro by radioreceptor binding studies using the following method.
(§2) The technique of the receptor binding allows to establish if, and with which affinity and specificity, a specific compound binds to a particular receptor. To evaluate the affinity of a specific compound to a particular receptor it is necessary to challenge in a particular tissue preparation wherein those specific receptors are present the compound to be tested with a radioactive labelled compound whose affinity for the same receptors is known. […] The amount of radioactivity present in the receptor-compound complex allows furthermore to stimate with great accuracy the amount of compound bound to the receptor. By said method it is therefore possible to stablish quickly the affinity of a new compound towards a specific receptor and thus to determine its pharmacological activity. […]
(§3) The thus obtained membranes (50-80 μg of proteins) were incubated in the presence of 1 nM of [^3H]-CP55.940 for 1 hour at 30° C. in a final volume of 0.5 ml of TME buffer containing 5 mg/ml of bovine serum albumin (BSA). The non specific binding was measured in the presence of CP55.940 at a 1 μM concentration. […]
(§4) The radioactivity present in the filters was determined by a scintillator spectrophotometer (Tricarb® 2100, Packard, Meridien, USA). […]
A general note: Loss of bound radioactivity is the signal in a displacement assay; it reports binding, not function.
The molecule `Cc1ccc2c(c1)oc1c(C(N)=O)nn(-c3ccc(Cl)cc3Cl)c12` [1-(2,4-dichlorophenyl)-6-methyl-1H-benzofuro[3,2-c]pyrazole-3-carboxamide] showed a pKi of under 5.52.

Test system in a further series: not given
Assay: not given
Settings: not given
Turning to `Cc1ccc2c(c1)oc1c(C(=O)NC3CCCCC3)nn(-c3ccc(Cl)cc3Cl)c12` [Example 3.23, N-cyclohexyl-1-(2,4-dichlorophenyl)-6-methyl-1H-benzofuro[3,2-c]pyrazole-3-carboxamide], the melting point is 140 to 142 °C.

On to `Cc1ccc2c(c1)oc1c(C(=O)NC3C4(C)CCC(C4)C3(C)C)nn(-c3ccc(Cl)cc3Cl)c12` (stereo not drawn) [Example 3.26, N-1,3,3-trimethyl-bicyclo[2.2.1]hept-2yl-1-(2,4-dichlorophenyl)-6-methyl-1H-benzofuro[3,2-c]pyrazole-3-carboxamide], for which the melting point lay within 84 to 86 °C.

With `Cc1ccc2c(c1)oc1c(C(=O)NN3CCOCC3)nn(-c3ccc(Cl)cc3Cl)c12` [Example 3.22, N-morpholin-4yl-1-(2,4-dichlorophenyl)-6-methyl-1H-benzofuro[3,2-c]pyrazole-3-carboxamide], the melting point was in the range of 178 to 180 °C. Same read-out and setting: next, `Cc1ccc2c(c1)oc1c(C(=O)N[C@@H]3C[C@H]4C[C@@H]([C@@H]3C)C4(C)C)nn(-c3ccc(Cl)cc3Cl)c12` [Example 3.25, N-2,6,6-trimethyl-bicyclo[3.1.1]hept-3yl-1-(2,4-dichlorophenyl)-6-methyl-1H-benzofuro[3,2-c]pyrazole-3-carboxamide]: 85 to 87 °C; `Cc1ccc2c(c1)oc1c(C(=O)N[C@H]3C[C@@H](C)CC[C@@H]3C(C)C)nn(-c3ccc(Cl)cc3Cl)c12` [Example 3.24, N-2-isopropyl-5-methyl-cyclohexyl-1-(2,4-dichlorophenyl)-6-methyl-1H-benzofuro[3,2-c]pyrazole-3-carboxamide]: 70 to 72 °C; `Cc1ccc2c(c1)oc1c(C(=O)NC34CC5CC(CC(C5)C3)C4)nn(-c3ccc(Cl)cc3Cl)c12` [Example 3.28, N-adamantan-1yl-1-(2,4-dichlorophenyl)-6-methyl-1H-benzofuro[3,2-c]pyrazole-3-carboxamide]: 210 to 212 °C.

Regarding `Cc1ccc2c(c1)oc1c(C(=O)NC3CC4CCC3(C)C4(C)C)nn(-c3ccc(Cl)cc3Cl)c12` (stereo not drawn) [Example 3.27, N-1,7,7-trimethyl-bicyclo[2.2.1]hept-2yl-1-(2,4-dichlorophenyl)-6-methyl-1H-benzofuro[3,2-c]pyrazole-3-carboxamide], the melting point was in the range of 78 to 80 °C. On the same count and under the same terms, the figure for `Cc1ccc2c(c1)oc1c(C(=O)NC3C4CC5CC(C4)CC3C5)nn(-c3ccc(Cl)cc3Cl)c12` (stereo not drawn) [Example 3.29, N-adamantan-2yl-1-(2,4-dichlorophenyl)-6-methyl-1H-benzofuro[3,2-c]pyrazole-3-carboxamide] is 209 to 211 °C.

For `Cc1ccc2c(c1)oc1c(C(N)=O)nn(-c3ccc(Cl)cc3Cl)c12` [1-(2,4-dichlorophenyl)-6-methyl-1H-benzofuro[3,2-c]pyrazole-3-carboxamide], the melting point is 185 to 186 °C.

On to `Cc1ccc2c(c1)oc1c(C(=O)NN3CCCC3)nn(-c3ccc(Cl)cc3Cl)c12` [Example 3.21, N-pirrolidinyl-1-(2,4-dichlorophenyl)-6-methyl-1H-benzofuro[3,2-c]pyrazole-3-carboxamide], for which the melting point was in the range of 90 to 92 °C.

A further series has as its target T2, CB1 cannabinoidergic receptors (Mus musculus, UniProt P47746).
T2 construct: the complete brain (excluding the cerebellum) and the spleen were quickly dissected and kept in ice; from tissue; host or cells: mouse brain (excluding the cerebellum) membranes
In words: Radioreceptor binding, displacement of [3H]-CP-55,940, CB1 receptors (mouse brain membranes).
Settings: not given
The protocol: as §1, §2, §3, §4
The molecule `Cc1ccc2c(c1)oc1c(C(N)=O)nn(-c3ccc(Cl)cc3Cl)c12` [1-(2,4-dichlorophenyl)-6-methyl-1H-benzofuro[3,2-c]pyrazole-3-carboxamide] showed a pKi of under 5.52.
